Tested on: RS4; 11 cells
Test: Cell proliferation assay (MTS), RS4; 11 cells
Type: cell-based
Settings: Homo sapiens, RS4-11, 72 h, RS4; 11 (ATCC CRL-1873) cell proliferation, 30000 cells/well, 72 h, MTS; mechanism-based readout of Bcl-2 inhibition; read-out: RS4; 11 IC50
Excerpt: MTS testing kit was purchased from Promega. The RPMI-1640, Fetal bovine serum and Penicillin-Streptomycin were purchased from Gibco. Dimethyl sulfoxide (DMSO) was purchased from Sigma.
To investigate whether a compound is able to inhibit the activity of Bcl-2 in cells, a mechanism-based assay using DOHH2 (DSMZ No.® ACC 47) and RS4; 11 (ATCC® CRL-1873™) cell was developed. In this assay, inhibition of Bcl-2 was detected by the inhibition of DOHH2 and RS4; 11 cells proliferation. DOHH2 and RS4; 11 cells were cultured in culture flasks to 40-80% confluence in RPMI-1640 plus 10% fetal bovine serum. Cells were collected and plated onto 96-well plates at desired cell density (DOHH2: 5000 cells/well; RS4; 11: 30000 cells/well). Plates were incubated overnight at 37° C., with 5% CO2 to adhere. Compounds were added to the plates, and the final compound concentrations were 10000, 3333, 1111, […], 124, 41, 14, 4.6 and 1.5 nM. Plates plated with DOHH2 or RS4; 11 cells were placed at 37° C., with 5% CO2 for 120 h (DOHH2) or 72 h (RS4; 11) respectively. 20 μl MTS/100 μl medium mixture solution were added to each well and incubate the plates for exactly 2 hours. The reaction was stopped by adding 25 μl 10% SDS per well. Measure absorbance at 490 nm and 650 nm (reference wavelength). ICso was calculated using GraphPad Prism 5.0.

Structure (SMILES)	IC50 [nM]
CC(Nc1ccc(S(=O)(=O)NC(=O)c2ccc(N3CCN(CC4=C(c5ccc(Cl)cc5)CC(C)(C)CC4)CC3)cc2Oc2cnc3[nH]ccc3c2)cc1[N+](=O)[O-])C1CCS(=O)(=NC2CC2)CC1 (stereo not drawn) [Example 62, 2-((1H-pyrrolo[2,3-b]pyridin-5-yl)oxy)-4-(4-((4′-chloro-5,5-dimethyl-3,4,5,6-tetrahydro-[1,1′-biphenyl]-2-yl)methyl)piperazin-1-yl)-N-((4-((1-(1-(cyclopropylimino)-1-oxidohexahydro-1λ^6-thiopyran-4-yl)ethyl)amino)-3-nitrophenyl)sulfonyl) benzamide]	160
CN=S1(=O)CCC(CNc2ccc(S(=O)(=O)NC(=O)c3ccc(N4CCN(CC5=C(c6ccc(Cl)cc6)CC(C)(C)CC5)CC4)cc3Oc3cnc4[nH]ccc4c3)cc2[N+](=O)[O-])CC1 (stereo not drawn) [Example 29, 2-((1H-pyrrolo[2,3-b]pyridin-5-yl)oxy)-4-(4-((4′-chloro-5,5-dimethyl-3,4,5,6-tetrahydro-[1,1′-biphenyl]-2-yl)methyl)piperazin-1-yl)-N-((4-(((1-(methylimino)-1-oxidohexahydro-1λ^6-thiopyran-4-yl)methyl)amino)-3-nitrophenyl)sulfonyl)benzamide]	323
C[C@@H](CN1CCS(=O)(=NC#N)CC1)Nc1ccc(S(=O)(=O)NC(=O)c2ccc(N3CCN(CC4=C(c5ccc(Cl)cc5)CC(C)(C)CC4)CC3)cc2Oc2cnc3[nH]ccc3c2)cc1S(=O)(=O)C(F)(F)F [Example 48, (S)-2-((1H-pyrrolo[2,3-b]pyridin-5-yl)oxy)-4-(4-((4′-chloro-5,5-dimethyl-3,4,5,6-tetrahydro-[1,1′-biphenyl]-2-yl)methyl)piperazin-1-yl)-N-((4-((1-(1-(cyanoimino)-1-oxido-1λ^6-thiomorpholino)propan-2-yl)amino)-3-((trifluoromethyl)sulfonyl)phenyl)sulfonyl)benzamide]	173
CC(CNc1ccc(S(=O)(=O)NC(=O)c2ccc(N3CCN(CC4=C(c5ccc(Cl)cc5)CC(C)(C)CC4)CC3)cc2Oc2cnc3[nH]ccc3c2)cc1[N+](=O)[O-])N1CCP(C)(=O)CC1 (stereo not drawn) [Example 10, 2-((1H-pyrrolo[2,3-b]pyridin-5-yl)oxy)-4-(4-((4′-chloro-5,5-dimethyl-3,4,5,6-tetrahydro-[1,1′-biphenyl]-2-yl)methyl)piperazin-1-yl)-N-((4-((2-(4-methyl-4-oxido-1,4-azaphosphinan-1-yl)propyl)amino)-3-nitrophenyl)sulfonyl)benzamide]	133
CC1(C)CCC(CN2CCN(c3ccc(C(=O)NS(=O)(=O)c4ccc(NCCN5CCS(=N)(=O)CC5)c([N+](=O)[O-])c4)c(Oc4cnc5[nH]ccc5c4)c3)CC2)=C(c2ccc(Cl)cc2)C1 [Example 46, 2-((1H-pyrrolo[2,3-b]pyridin-5-yl)oxy)-4-(4-((4′-chloro-5,5-dimethyl-3,4,5,6-tetrahydro-[1,1′-biphenyl]-2-yl)methyl)piperazin-1-yl)-N-((4-((2-(1-imino-1-oxido-1λ^6-thiomorpholino)ethyl)amino)-3-nitrophenyl)sulfonyl) benzamide]	155
CC1(C)CCC(CN2CCN(c3ccc(C(=O)NS(=O)(=O)c4ccc(NCC5CCS(=N)(=O)CC5)c([N+](=O)[O-])c4)c(Oc4cnc5[nH]ccc5c4)c3)CC2)=C(c2ccc(Cl)cc2)C1 (stereo not drawn) [Example 28, 2-((1H-pyrrolo[2,3-b]pyridin-5-yl)oxy)-4-(4-((4′-chloro-5,5-dimethyl-3,4,5,6-tetrahydro-[1,1′-biphenyl]-2-yl)methyl)piperazin-1-yl)-N-((4-(((1-imino-1-oxidohexahydro-1λ^6-thiopyran-4-yl)methyl)amino)-3-nitrophenyl)sulfonyl) benzamide]	122
CC1(C)CCC(CN2CCN(c3ccc(C(=O)NS(=O)(=O)c4ccc(NCC(N5CCP(C)(=O)CC5)C(F)(F)F)c([N+](=O)[O-])c4)c(Oc4cnc5[nH]ccc5c4)c3)CC2)=C(c2ccc(Cl)cc2)C1 (stereo not drawn) [Example 14, 2-((1H-pyrrolo[2,3-b]pyridin-5-yl)oxy)-4-(4-((4′-chloro-5,5-dimethyl-3,4,5,6-tetrahydro-[1,1′-biphenyl]-2-yl)methyl)piperazin-1-yl)-N-((3-nitro-4-((3,3,3-trifluoro-2-(4-methyl-4-oxido-1,4-azaphosphinan-1-yl)propyl)amino)phenyl)sulfonyl) benzamide]	520
CN=S1(=O)CCN(CCNc2ccc(S(=O)(=O)NC(=O)c3ccc(N4CCN(CC5=C(c6ccc(Cl)cc6)CC(C)(C)CC5)CC4)cc3Oc3cnc4[nH]ccc4c3)cc2[N+](=O)[O-])CC1 [Example 33, 2-((1H-pyrrolo[2,3-b]pyridin-5-yl)oxy)-4-(4-((4′-chloro-5,5-dimethyl-3,4,5,6-tetrahydro-[1,1′-biphenyl]-2-yl)methyl)piperazin-1-yl)-N-((4-((2-(1-(methylimino)-1-oxido-1λ^6-thiomorpholino)ethyl)amino)-3-nitrophenyl)sulfonyl) benzamide]	101
CC(Nc1ccc(S(=O)(=O)NC(=O)c2ccc(N3CCN(CC4=C(c5ccc(Cl)cc5)CC(C)(C)CC4)CC3)cc2Oc2cnc3[nH]ccc3c2)cc1[N+](=O)[O-])C1CCS(=O)(=NC#N)CC1 (stereo not drawn) [Example 32, 2-((1H-pyrrolo[2,3-b]pyridin-5-yl)oxy)-4-(4-((4′-chloro-5,5-dimethyl-3,4,5,6-tetrahydro-[1,1′-biphenyl]-2-yl)methyl)piperazin-1-yl)-N-((4-((1-(1-(cyanoimino)-1-oxidohexahydro-1λ^6-thiopyran-4-yl)ethyl)amino)-3-nitrophenyl)sulfonyl)benzamide]	438
CC1(C)CCC(CN2CCN(c3ccc(C(=O)NS(=O)(=O)c4ccc(NCCN5CCS(=O)(=NC#N)CC5)c([N+](=O)[O-])c4)c(Oc4cnc5[nH]ccc5c4)c3)CC2)=C(c2ccc(Cl)cc2)C1 [Example 36, 2-((1H-pyrrolo[2,3-b]pyridin-5-yl)oxy)-4-(4-((4′-chloro-5,5-dimethyl-3,4,5,6-tetrahydro-[1,1′-biphenyl]-2-yl)methyl)piperazin-1-yl)-N-((4-((2-(1-(cyanoimino)-1-oxido-1λ^6-thiomorpholino)ethyl)amino)-3-nitrophenyl)sulfonyl) benzamide]	232
CC1(C)CCC(CN2CCN(c3ccc(C(=O)NS(=O)(=O)c4ccc(NCCN5CCS(=O)(=NC(=O)C6CC6)CC5)c([N+](=O)[O-])c4)c(Oc4cnc5[nH]ccc5c4)c3)CC2)=C(c2ccc(Cl)cc2)C1 [Example 69, 2-((1H-pyrrolo[2,3-b]pyridin-5-yl)oxy)-4-(4-((4′-chloro-5,5-dimethyl-3,4,5,6-tetrahydro-[1,1′-biphenyl]-2-yl)methyl)piperazin-1-yl)-N-((4-((2-(1-((cyclopropanecarbonyl)imino)-1-oxido-1λ^6-thiomorpholino)ethyl)amino)-3-nitrophenyl)sulfonyl) benzamide]	165
CC1(C)CCC(CN2CCN(c3ccc(C(=O)NS(=O)(=O)c4ccc(NCCN5CCS(=O)(=NS(C)(=O)=O)CC5)c([N+](=O)[O-])c4)c(Oc4cnc5[nH]ccc5c4)c3)CC2)=C(c2ccc(Cl)cc2)C1 [Example 71, 2-((1H-pyrrolo[2,3-b]pyridin-5-yl)oxy)-4-(4-((4′-chloro-5,5-dimethyl-3,4,5,6-tetrahydro-[1,1′-biphenyl]-2-yl)methyl)piperazin-1-yl)-N-((4-((2-(1-((methylsulfonyl)imino)-1-oxido-1λ^6-thiomorpholino)ethyl)amino)-3-nitrophenyl)sulfonyl)benzamide]	258
